{"source": "patent US20240408170A1", "about": "“COMPOSITION FOR DECOMPOSITION OF TRYPSIN OR TMPRSS2” (Riken, priority 2021, published 2024)", "key": {"Citrobacter rodentium": {"test_system": "Citrobacter rodentium", "experiment": "Vaccine administration experiment (peracetic acid-inactivated C. rodentium) followed by C. rodentium infection", "format": "in vivo, mouse", "conditions": "with 2-mix", "procedure": "For a colony-forming unit (CFU) assay, cecal patches or cecal luminal contents were collected, and after homogenization with PBS, serially diluted homogenates were plated on LB agar plates. CFU was counted after overnight culture at 37° C. under aerobic conditions.\nFor the ex vivo evaluation of C. rodentium-specific IgA, the cecal contents were resuspended in a 5× (w/v) LB medium and centrifuged. The supernatant was filtered through a sterilization filter unit with a PVDF film having a pore size of 0.22 μm, and then mixed with an equal amount of a C. rodentium culture solution cultured overnight in vitro. This mixture was gently shaken at room temperature and incubated for 1 hour to examine the aggregation effect with a confocal microscope (Leica TCS SP8). Alternatively, after the incubation, the mixture was centrifuged and washed once with PBS. Thereafter, the bacterial cell pellet was dissolved in a 1% SDS solution (diluted with a 50 mM Tris-HCl buffer solution to which 5 mM EDTA was added). The lysate was stained by western blot with a goat anti-mouse IgA a chain antibody (HRP) (ab97235) to evaluate the relative amount of C. rodentium-binding (C. rodentium-specific) IgA in the faecal contents.\nFor a vaccine administration experiment, 200 μL of 2-mix (B. uniformis and P. merdae)+P. clara (WT), or 2-mix+P. clara (Δ00502) was preliminarily administered to GF mice. After 4 days, C. rodentium (10^10 cells/mouse) inactivated with peracetic acid was orally administered to the mice once a week for 3 weeks. After 3 weeks of immunization, the mice were infected with C. rodentium (150 μL/mouse) cultured overnight by oral administration, and euthanized on day 14.\nThe C. rodentium inactivated by peracetic acid was produced as follows. C. rodentium cultured overnight was recovered by centrifugation (16,000×g, 10 minutes) and resuspended in sterilized PBS at a density of 10^10 cells per 1 mL. Peracetic acid (240990, Sigma-Aldrich) was added such that a final concentration was 0.4%, and incubation was performed at room temperature for 1 hour. […]"}, "TMPRSS2": {"target": "T1, TMPRSS2 (Mus musculus, UniProt Q9JIQ8)", "T1 construct": "from tissue; host or cells: faeces of gnotobiotic mice", "T1 sequence (Q9JIQ8 254-490 limits assumed)": "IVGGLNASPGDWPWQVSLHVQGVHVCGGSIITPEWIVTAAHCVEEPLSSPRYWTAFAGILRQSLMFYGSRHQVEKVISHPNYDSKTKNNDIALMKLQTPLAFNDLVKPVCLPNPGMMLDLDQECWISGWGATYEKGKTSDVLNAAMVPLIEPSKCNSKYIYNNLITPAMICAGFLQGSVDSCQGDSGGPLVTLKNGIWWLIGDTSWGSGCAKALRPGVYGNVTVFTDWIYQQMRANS", "experiment": "Western blot of faeces of GF mice inoculated with P. clara strain together with 2-mix", "format": "in vivo", "procedure": "(§1) Mouse faecal samples were suspended and diluted 50-fold with phosphate buffered saline (PBS) to which a protease inhibitor cocktail (Roche) was added. Subsequently, the suspended sample was centrifuged at 15,000×g for 10 minutes at 4° C., and the supernatant was subjected to western blot. Mouse pancreatic tissue was rapidly frozen in liquid nitrogen. Proteins were extracted by TRIzol Reagent (Thermo Fisher Scientific K.K.), and the final protein concentration was adjusted to 4 μg/μL. For SDS-PAGE and blotting, Novex (registered trademark) NuPAGE (registered trademark) SDS-PAGE Gel system (Thermo Fisher Scientific K.K.) and iBlot™ 2 Dry Blotting System (Thermo Fisher Scientific K.K.) were used according to the manufacturer's instructions.\n(§2) The antibodies used are as follows. […]"}, "IgA heavy chain": {"test_system": "IgA heavy chain", "experiment": "Western blot of faeces of GF mice inoculated with P. clara strain together with 2-mix", "format": "in vivo, mouse", "conditions": "compared to Δ00502 or Δ00509", "procedure": "as §1, §2"}}}
{"substance": "Paraprevotella clara [JCM 14859]", "values": [{"measurement": "body weight after infection with C. rodentium", "setting": "Citrobacter rodentium; orally vaccinated mice", "value": "body weight loss was reduced"}, {"measurement": "C. rodentium-specific IgA in cecal luminal contents", "setting": "Citrobacter rodentium; western blot", "value": "significantly high amount of C. rodentium-specific IgA"}, {"measurement": "total IgA in cecal luminal contents", "setting": "Citrobacter rodentium; western blot", "value": "significantly high total IgA amount"}, {"measurement": "amount of TMPRSS2 in the faeces", "setting": "TMPRSS2", "value": "reduced"}, {"measurement": "IgA heavy chain in the faeces", "setting": "IgA heavy chain", "value": "larger amount"}]}
